Experimental data taken from US10568320B2, “Biologically-based control methods for insect pests” (The United States of America, as represented by the …, priority 2017, dated 2020).
“Also recorded” adds a separate entry of the source.

Assays:
fire ant workers [1] = assay: Five biogenic amines fed to fire ant workers as droplets; assay type: in vivo, Solenopsis invicta; conditions: 1% in 10% sucrose, 48 h
Procedure: Tyramine is one of five biogenic amines that may be found in insects (e.g., dopamine, histamine, octopamine, serotonin, and tyramine). The experiment in this example tests whether fire ant worker mortality effects observed with tyramine may be a general result of the ants ingesting greater than normal amounts of a biogenic amine. To test this hypothesis groups of 20 fire ant worker ants were starved for 24 hours and fed a 1% (w/v) biogenic amine in 10% sucrose solution. Treatments and sucrose were presented to the worker ants as a 25 microliter droplet on a 2 cm^2 piece of silicon treated filter paper. Each treatment and control were performed in triplicate for a total of 60 worker ants per treatment and control. Mortality was monitored for the first 7-8 h after introduction of the sucrose solutions, then at 24 h. The feeding/monitoring sequence was repeated for another 24 h period for a total of 48 h. The results are shown in FIG. 12A-12B in the form of Kaplan-Meier mortality curves.

fire ant workers [2] = assay: Droplet feeding of worker groups: mortality over 24 h and concentration series; assay type: in vivo
Procedure: To determine how quickly the tyramine and acetyl tyramide act, 60 workers were allowed to feed on tyramine (FIG. 8A) or acetyl tyramide (FIG. 8B) dissolved at about 1% in 10% sucrose solution. The control and treatments were presented to the worker ants as droplets on phase separation filter paper. Consumption of the droplets was readily observed. Mortality was monitored for each of the first 10 hours and then at 24 hours. […] Tyramine and acetyl tyramide had >50% and >40% mortality, respectively within the 24 h time period of the experiment. […] This distribution is a cornerstone of pest ant baits. To test this hypothesis, a similar experiment was conducted. Workers were allowed to feed on the treatment and control solutions and were then transferred to another container with unfed nestmates. In all cases, it was observed that the treatment fed workers regurgitated the treatment and sucrose solutions to their unfed nestmates through the classic mechanism of trophallaxis (data not shown). Thus, normal worker behavior necessary for bait development was not affected by the treatments under these experimental conditions.
One criteria for an effective pest ant Active Ingredient (AI) is maintenance of activity over 1-3 orders of magnitude, because as the bait is distributed from one ant to another the material is diluted. The AI must maintain activity until all individuals in the colony (e.g., workers, brood and sexuals including the queen) have received the AI. […] Journal of Economic Entomology 99(5): 1739-1748). The 0.01% had >24 h delay in mortality.

[3] = test system: Tawny crazy ant (Nylanderia fulva) workers; assay: Species specificity droplet feeding: tawny crazy ant workers; assay type: in vivo; conditions: 1% in 10% sucrose, 24 h
Text: (§1) To evaluate the effect of tyramine on another pest ant species triplicate groups of 20 Tawny crazy ant (Nylanderia fulva) workers and triplicate groups of 20 fire ant workers were setup. Corresponding controls for both pest ant species were workers fed 10% sucrose solution. The treatment was 1% tyramine in 10% sucrose (weight-to-volume). The control and treatments were presented to the worker ants as droplets on phase separation filter paper. Consumption of the droplets was readily observed. Mortality was monitored for each of the first 10 hours and then at 24 hours. The results are shown as mean±standard error of accumulated mortality for controls and treatments at 24 h in FIG. 13. […] These unexpected results illustrate that the toxicity effects of tyramine on fire ants are not automatically extended to other ant species.

[4] = test system: female alates and workers; assay: Feeding of queenless colony sub-units with immature female alates; assay type: in vivo, Solenopsis invicta
Text: In this example, whether feeding tyramine and/or the tyramides to colony sub-units that contained female […] would result in inappropriate wing loss, as well as ovariole development. Wing muscle histolysis, and queen pheromone production normally accompanies wing loss (see Vargo, E. L. (1998), Primer pheromones in ants, pp. 293-313. In […]. Breed, […] and M. L. Winston (eds.), Pheromone communication in social insects ants, wasps, bees, and termites. […], Boulder, Colo.). […] The data supports and confirms that workers are feeding the treatments to the female […], which in turn stimulates wing loss in the […]. FIG. 11B is from the same experiment confirming the worker mortality effects of the tyramine and tyramide treatments.

[5] = test system: mature female alates (MFAs); assay: Injection into MFA abdomen: wing loss (dealation); assay type: in vivo, Solenopsis invicta; conditions: 100 nL of a 1.0% saline solution injected into the MFA abdomen
Text: While the MFAs are in their mother colony, the queen releases primer pheromones that inhibit wing loss (sometimes referred to herein as “dealation”), development of ovaries, wing muscle histolysis, and pheromone production. This release prevents reproductive/resource competition between the MFAs and the mother queen. If MFAs are removed from the colony, they become disinhibited and eventually (e.g., within days) lose their wings and start the physiological processes (e.g., wing loss and ovariole development). MFA also become disinhibited when they leave the colony on a mating flight; however, in this case the now NMQs lose their wings within minutes of landing and initiate the above mentioned physiological/biochemical changes (e.g., wing loss and ovariole development). We know from previous experiments that mating is the trigger, not mating flight initiation or the act of flying (Burns, S. N., et al. (2002) Identification and action of juvenile hormone III from sexually mature alate females of the red imported fire ant, Solenopsis invicta. Journal of Insect Physiology 48: 357-365; Burns, S. N., et al. (2005), The effect of age and social environment on dealation in Solenopsis invicta (Hymenoptera: Formicidae) female […]. […] Burns, S. N., et al. […]

fire ant workers [6] = assay: Example 14 feeding experiments: fire ant worker mortality
4th instar sexual larvae = assay: Direct (hand) feeding of 4th instar sexual larvae; assay type: in vivo, Solenopsis invicta
Text: It was concluded that the 4th instar larvae are refractory to the mortality effects observed when workers are fed tyramine.

[7] = test system: mature female alates (MFAs); assay: Injection into MFA abdomen: ovariole development and egg-laying; assay type: in vivo, Solenopsis invicta; conditions: 100 nL of a 1.0% saline solution (1 microgram) injected
Text: Two measures of ovariole development were used. […] Measurement of ovariole area in the same samples gave a quantitative measure of ovariole development. […] Within the context of a colony this effect would be in direct conflict with the colony queen. Eggs laid would not be fertile and therefore develop into males. Queen pheromone is also produced by […], which would act to reduce the fecundity of the colony queen. For example, in polygyne colonies the higher the number of queens the lower is the mean egg-laying rate/queen due to the presence of excess queen pheromone (see Vander Meer, R. K., et al. (1992), A comparison of queen oviposition rates from monogyne and polygyne fire ant, Solenopsis invicta, colonies.

[8] = test system: monogyne queenright colonies; assay: Feeding of monogyne queenright colonies: worker and queen mortality; assay type: in vivo, Solenopsis invicta; conditions: 1% in 10% sucrose, 27 d
Text: FIGS. 24A and 24B show results for the sucrose (10%) control and two treatments, tyramine (1%) and N-methyl-tyramine (1%), both dissolved in 10% sucrose. The control and test colonies were monogyne queenright colonies, containing a single queen, brood and workers started in the laboratory from newly mated queens collected in the field. The mean number of workers per colony was 8,400±400. […] Previous experiments used queenless sub-colonies, rather than the queenright colonies in these experiments. The mortality effect on colony queens was unexpected, since worker fire ants are completely sterile and cannot reproduce even if the queen dies. Therefore, when the reproductive queen dies no more brood is produced and the colony is no longer functional—it is considered dead. […] Therefore, 80% of the treated colonies were considered dead.

fire ant workers [9] = assay: Species specificity droplet feeding: fire ant workers; assay type: in vivo, Solenopsis invicta; conditions: 1% in 10% sucrose, 24 h
Text: as §1

[10] = Solubility in aqueous solution; assay type: physicochemical
female sexuals (alates) = assay: Worker attraction to poison sac extracts of dealates (queen pheromone bioassay); assay type: in vivo, Solenopsis invicta; conditions: extracts from dealates of fed sub-colonies

NCCc1ccc(O)cc1 [tyramine]
worker mortality, tyramine HCl versus tyramine free base (fire ant workers [1]): not significantly different
delay in mortality (fire ant workers [2]; 0.01% concentration): > 24 h
mortality delay (fire ant workers [2]; 0.1% concentration): ≥ 5 h
mortality delay (fire ant workers [2]; 1.0% concentration): ≥ 5 h
worker mortality at a dilution factor of 100 (fire ant workers [2]; about 0.01% (weight-to-volume)): significant worker mortality
worker mortality compared with sucrose control (Kaplan-Meier, Log-rank) (fire ant workers [2]; about 1% in 10% sucrose, 24 h): significantly greater worker mortality than the sucrose control
worker mortality within the 24 h time period (fire ant workers [2]; in vivo): > 50%
accumulated worker mortality compared to sucrose control [3]: did not have significant mortality compared to its sucrose control; also recorded: no effect on crazy ant workers
wing loss of female alates ([4]; fed in 10% sucrose continuously for 7 days, via workers): rapid wing loss
ovariole development of female alates fed by workers ([4]; sub-colonies): commencement of ovariole development
dealation (wing loss) compared to the control [5]: significantly faster and inappropriate dealation
fire ant worker mortality versus 10% sucrose control (fire ant workers [6]; 0.01% in 10% sucrose): significantly different from the 10% sucrose control
fire ant worker mortality versus 10% sucrose control (fire ant workers [6]; 0.1% in 10% sucrose): significantly different from the 10% sucrose control
fire ant worker mortality versus 10% sucrose control (fire ant workers [6]; 1.0% in 10% sucrose): significantly different from the 10% sucrose control
concentration of solution fed to workers that led to mortality after 7 days (fire ant workers [6]; estimated from feeding studies): 0.01 micrograms per microliter
mortality / sickness of 4th instar sexual larvae (4th instar sexual larvae; fed once, 80 nL max of about 1% w/v in 10% sucrose, N=10): All sexual larvae fed tyramine died by day 5
amount fed at which fire ant sexual larvae die (4th instar sexual larvae; in vivo): 0.8 micrograms
ovariole development, ovariole area, compared to controls [7]: caused significant ovariole development
ovariole development, ovary rank 1-4, compared to the control [7]: significant ovariole development
% worker mortality at the end of the experiment versus control [8]: significantly different from the corresponding controls
fate of colony queens (five replicates) [8]: one colony queen survived out of five
queen mortality at the end of the experiment versus control [8]: significantly different from the corresponding controls
colonies considered dead ([8]; five colonies): 80%
accumulated worker mortality compared to sucrose control (fire ant workers [9]): significant mortality compared to its sucrose control
water solubility [10]: water soluble
solubility maximum ([10]; solution): 1%
worker attraction to poison sac extracts versus N,N-dimethyl tyramine treatment and controls (female sexuals (alates)): significantly different from those from the N,N-dimethyl tyramine treatment and the sucrose and hexane controls
